Values joined by “and” are separate entries in the source; they are usually repeats but may differ in a detail not shown here. Equal entries are not always repeated. Records with an inconclusive call do not appear.
Test system: CD8F1 mice, subcutaneous mammary adenocarcinoma, T/C%
Test: NCI In Vivo Anticancer Drug Screen. Data for tumor model Mammary Adenocarcinoma CD8F1 (subcutaneous) in CD8F1
Conditions: higher = larger tumour
How it was run: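 Tumor-bearing mice, transplantable model; readout survival or tumor size; value = treated (T) / vehicle control (C).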

[1] = endpoint: median tumor weight (est.), dose: 1.56 mg/kg/injection, schedule: Q07DX005 (ip), vehicle: saline
[2] = endpoint: median tumor weight (est.), dose: 3.12 mg/kg/injection, schedule: Q07DX005 (ip), vehicle: saline
[3] = endpoint: median tumor weight (est.), dose: 6.25 mg/kg/injection, schedule: Q07DX005 (ip), vehicle: saline
[4] = endpoint: median tumor weight (est.), dose: 12.5 mg/kg/injection, schedule: Q07DX005 (ip), vehicle: Klucel (hydroxypropylcellulose) (HPC)
[5] = endpoint: median tumor weight (est.), dose: 25.0 mg/kg/injection, schedule: Q07DX005 (ip), vehicle: Klucel (hydroxypropylcellulose) (HPC)
[6] = endpoint: median tumor weight change, dose: 15.62 mg/kg/injection, schedule: Q01DX001 (ip), vehicle: saline
[7] = endpoint: median tumor weight (est.), dose: 12.5 mg/kg/injection, schedule: Q07DX005 (ip), vehicle: saline with Tween-80
[8] = endpoint: median tumor weight (est.), dose: 12.5 mg/kg/injection, schedule: Q07DX005 (ip), vehicle: saline
[9] = endpoint: median tumor weight change, dose: 31.25 mg/kg/injection, schedule: Q01DX001 (ip), vehicle: saline

ClCCCN1CCCCC1CCl (stereo not given)
T/C [1]: 73 % of control | T/C [2]: 123 % of control and 105 % of control | T/C [3]: 71 % of control and 78 % of control | T/C (endpoint: median tumor weight (est.), dose: 25.0 mg/kg/injection, schedule: Q07DX005 (ip), vehicle: saline): 53 % of control | T/C (endpoint: median tumor weight (est.), dose: 50.0 mg/kg/injection, schedule: Q07DX005 (ip), vehicle: saline): 3 % of control

CC(C)(C)C1CCCCC1
T/C [4]: 85 % of control | T/C [5]: 69 % of control | T/C (endpoint: median tumor weight (est.), dose: 100.0 mg/kg/injection, schedule: Q07DX005 (ip), vehicle: Klucel (hydroxypropylcellulose) (HPC)): 94 % of control | T/C (endpoint: median tumor weight (est.), dose: 200.0 mg/kg/injection, schedule: Q07DX005 (ip), vehicle: Klucel (hydroxypropylcellulose) (HPC)): 73 % of control | T/C (endpoint: median tumor weight (est.), dose: 400.0 mg/kg/injection, schedule: Q07DX005 (ip), vehicle: Klucel (hydroxypropylcellulose) (HPC)): 69 % of control

C[CH2][Sn]([CH2]C)([O]S(C)(=O)=O)[O]S(C)(=O)=O
T/C (endpoint: median tumor weight change, dose: 3.9 mg/kg/injection, schedule: Q01DX001 (ip), vehicle: saline): 88 % of control | T/C (endpoint: median tumor weight change, dose: 7.81 mg/kg/injection, schedule: Q01DX001 (ip), vehicle: saline): 60 % of control | T/C [6]: 103 % of control

BrC1CC(Br)c2c1c1c(c3c2C(Br)CC3Br)C(Br)CC1Br (stereo not given)
T/C [7]: 87 % of control | T/C (endpoint: median tumor weight (est.), dose: 25.0 mg/kg/injection, schedule: Q07DX005 (ip), vehicle: saline with Tween-80): 210 % of control and 98 % of control | T/C (endpoint: median tumor weight (est.), dose: 100.0 mg/kg/injection, schedule: Q07DX005 (ip), vehicle: saline with Tween-80): 86 % of control | T/C (endpoint: median tumor weight (est.), dose: 200.0 mg/kg/injection, schedule: Q07DX005 (ip), vehicle: saline with Tween-80): 71 % of control and 75 % of control | T/C (endpoint: median tumor weight (est.), dose: 400.0 mg/kg/injection, schedule: Q07DX005 (ip), vehicle: saline with Tween-80): 40 % of control | T/C (endpoint: median tumor weight change, dose: 250.0 mg/kg/injection, schedule: Q01DX001 (ip), vehicle: saline with Tween-80): 85 % of control | T/C (endpoint: median tumor weight change, dose: 500.0 mg/kg/injection, schedule: Q01DX001 (ip), vehicle: saline with Tween-80): 88 % of control | T/C (endpoint: median tumor weight change, dose: 1000.0 mg/kg/injection, schedule: Q01DX001 (ip), vehicle: saline with Tween-80): 59 % of control | T/C (endpoint: median tumor weight change, dose: 2000.0 mg/kg/injection, schedule: Q01DX001 (ip), vehicle: saline with Tween-80): 51 % of control

CC1OC(OC2CC(O)(C(=O)CO)Cc3c(O)c4c(c(O)c32)C(=O)c2ccccc2C4=O)CC(N)C1O (stereo not given)
T/C (endpoint: mean tumor weight, dose: 0.12 mg/kg/injection, schedule: Q07DX006 (ip), vehicle: saline): 40 % of control | T/C (endpoint: mean tumor weight, dose: 0.5 mg/kg/injection, schedule: Q07DX006 (ip), vehicle: saline): 1 % of control | T/C (endpoint: median tumor weight change, dose: 0.31 mg/kg/injection, schedule: Q01DX001 (ip), vehicle: water): 67 % of control | T/C (endpoint: median tumor weight change, dose: 0.62 mg/kg/injection, schedule: Q01DX001 (ip), vehicle: water): 37 % of control | T/C (endpoint: median tumor weight change, dose: 1.25 mg/kg/injection, schedule: Q01DX001 (ip), vehicle: water): 26 % of control and 28 % of control

C[n+]1c(-c2cccc3ccccc23)c2cc(N)ccc2c2ccccc21
T/C [2]: 71 % of control | T/C [3]: 99 % of control | T/C [8]: 49 % of control

CC1=C(O)C(=O)[C@@H]2O[C@@H]2C1=O
T/C (endpoint: median tumor weight change, dose: 7.8 mg/kg/injection, schedule: Q01DX001 (ip), vehicle: saline): 54 % of control | T/C (endpoint: median tumor weight change, dose: 15.6 mg/kg/injection, schedule: Q01DX001 (ip), vehicle: saline): 81 % of control | T/C [9]: 48 % of control

[Cl][Sn]([c]1ccccc1)[c]1ccccc1
T/C (endpoint: median tumor weight change, dose: 1.56 mg/kg/injection, schedule: Q01DX001 (ip), vehicle: saline): 81 % of control | T/C (endpoint: median tumor weight change, dose: 3.12 mg/kg/injection, schedule: Q01DX001 (ip), vehicle: saline): 63 % of control | T/C (endpoint: median tumor weight change, dose: 6.25 mg/kg/injection, schedule: Q01DX001 (ip), vehicle: saline): 94 % of control | T/C (endpoint: median tumor weight change, dose: 12.5 mg/kg/injection, schedule: Q01DX001 (ip), vehicle: saline): 81 % of control | T/C (endpoint: median tumor weight change, dose: 25.0 mg/kg/injection, schedule: Q01DX001 (ip), vehicle: saline): 78 % of control | T/C (endpoint: median tumor weight change, dose: 25.0 mg/kg/injection, schedule: Q01DX001 (ip), vehicle: water): 47 % of control

Cc1ccc(C2NC(=O)c3ccccc3N2)s1 (stereo not given)
T/C (endpoint: mean tumor weight, dose: 25.0 mg/kg/injection, schedule: Q07DX005 (ip), vehicle: Klucel (hydroxypropylcellulose) (HPC)): 82 % of control | T/C (endpoint: mean tumor weight, dose: 50.0 mg/kg/injection, schedule: Q07DX005 (ip), vehicle: Klucel (hydroxypropylcellulose) (HPC)): 88 % of control | T/C (endpoint: mean tumor weight, dose: 100.0 mg/kg/injection, schedule: Q07DX005 (ip), vehicle: Klucel (hydroxypropylcellulose) (HPC)): 106 % of control | T/C (endpoint: mean tumor weight, dose: 200.0 mg/kg/injection, schedule: Q07DX005 (ip), vehicle: Klucel (hydroxypropylcellulose) (HPC)): 105 % of control | T/C (endpoint: mean tumor weight, dose: 400.0 mg/kg/injection, schedule: Q07DX005 (ip), vehicle: Klucel (hydroxypropylcellulose) (HPC)): 123 % of control | T/C [4]: 78 % of control | T/C [5]: 14 % of control | T/C (endpoint: median tumor weight (est.), dose: 50.0 mg/kg/injection, schedule: Q07DX005 (ip), vehicle: Klucel (hydroxypropylcellulose) (HPC)): 110 % of control

CC[n+]1c(-c2ccccc2)c2cc(N)ccc2c2ccc(N)cc21
T/C (endpoint: median tumor weight (est.), dose: 10.0 mg/kg/injection, schedule: Q07DX005 (ip), vehicle: water): 85 % of control | T/C (endpoint: median tumor weight (est.), dose: 20.0 mg/kg/injection, schedule: Q07DX005 (ip), vehicle: water): 105 % of control

CCOC(=O)NC1=C(N2CC2)C(=O)C(NC(=O)OCC)=C(N2CC2)C1=O
T/C (endpoint: median tumor weight (est.), dose: 0.78 mg/kg/injection, schedule: Q07DX005 (ip), vehicle: saline): 36 % of control | T/C (endpoint: median tumor weight (est.), dose: 1.56 mg/kg/injection, schedule: Q07DX005 (ip), vehicle: saline with Tween-80): 53 % of control | T/C [1]: 36 % of control | T/C (endpoint: median tumor weight (est.), dose: 3.12 mg/kg/injection, schedule: Q07DX005 (ip), vehicle: saline with Tween-80): 59 % of control | T/C [2]: 56 % of control | T/C (endpoint: median tumor weight (est.), dose: 6.25 mg/kg/injection, schedule: Q07DX005 (ip), vehicle: saline with Tween-80): 25 % of control | T/C [3]: 25 % of control | T/C [7]: 11 % of control | T/C [8]: 23 % of control | T/C (endpoint: median tumor weight change, dose: 2.5 mg/kg/injection, schedule: Q01DX001 (ip), vehicle: saline): 33 % of control | T/C (endpoint: median tumor weight change, dose: 2.5 mg/kg/injection, schedule: Q01DX001 (ip), vehicle: suspension in saline): 81 % of control | T/C (endpoint: median tumor weight change, dose: 5.0 mg/kg/injection, schedule: Q01DX001 (ip), vehicle: saline): 43 % of control | T/C (endpoint: median tumor weight change, dose: 5.0 mg/kg/injection, schedule: Q01DX001 (ip), vehicle: suspension in saline): 80 % of control | T/C (endpoint: median tumor weight change, dose: 10.0 mg/kg/injection, schedule: Q01DX001 (ip), vehicle: saline with Tween-80): 16 % of control and 31 % of control | T/C (endpoint: median tumor weight change, dose: 10.0 mg/kg/injection, schedule: Q01DX001 (ip), vehicle: saline): 32 % of control | T/C (endpoint: median tumor weight change, dose: 10.0 mg/kg/injection, schedule: Q01DX001 (ip), vehicle: suspension in saline): 52 % of control | T/C (endpoint: median tumor weight change, dose: 20.0 mg/kg/injection, schedule: Q01DX001 (ip), vehicle: saline with Tween-80): -14 % of control | T/C (endpoint: median tumor weight change, dose: 20.0 mg/kg/injection, schedule: Q01DX001 (ip), vehicle: saline): 11 % of control | T/C (endpoint: median tumor weight change, dose: 20.0 mg/kg/injection, schedule: Q01DX001 (ip), vehicle: suspension in saline): 19 % of control

CCC(C(=O)O)C(=O)O.[NH2-].[NH2-].[Pt+2]
T/C [6]: 172 % of control | T/C (endpoint: median tumor weight change, dose: 16.0 mg/kg/injection, schedule: Q01DX001 (ip), vehicle: saline): 121 % of control | T/C (endpoint: median tumor weight change, dose: 31.0 mg/kg/injection, schedule: Q01DX001 (ip), vehicle: saline): 46 % of control | T/C [9]: 87 % of control | T/C (endpoint: median tumor weight change, dose: 62.0 mg/kg/injection, schedule: Q01DX001 (ip), vehicle: saline): 68 % of control | T/C (endpoint: median tumor weight change, dose: 62.5 mg/kg/injection, schedule: Q01DX001 (ip), vehicle: saline): 92 % of control | T/C (endpoint: median tumor weight change, dose: 125.0 mg/kg/injection, schedule: Q01DX001 (ip), vehicle: saline): 2 % of control and 26 % of control
